Source: US20170000784A1, “Autophagy Inhibitors” (priority 2013, published 2017)
Read-outs that look alike come from different tables or passages of the source.

Assays:
[1] = tested on: A375 melanoma cell line; assay: Cell viability (IC50) screen, CellTiter Glo, A375; type: cell-based; conditions: Homo sapiens
Method: (§1) U2OS cells were seeded at 500 cells per well in 5A McCoy's with 10% FBS in 96-well clear bottom, black-walled tissue culture plates. All melanoma cell lines (A375, UACC-91, UACC-257, UACC-502, UACC-903, UACC-1308, UACC-1940, UACC-2534, and UACC-3291) were seeded at 5,000 cells per well in RPMI 1640 with 10% FBS in 96-well clear bottom, black-walled tissue culture plates. After 24 hour incubation, cells were treated with VATG compounds in triplicate with a 10-point half log dose response from […] for 24 and 48 hours. Medium was removed and 2× CellTiter Glo (Promega, G7571) reagent mixed 1:1 with Opti-MEM (Invitrogen, 31985062) was added at 100 μL per well and incubated at room temperature for 15 minutes while rocking. 75 μL per well was moved to a white-walled 96-well plate and luminescence quantified using the 96 LUM program on an EnVision plate reader (PerkinElmer) and exported for analysis. All triplicate data points were averaged and luminescent readings for each treatment were normalized to vehicle control for change in viability. Dose response curves were input into SigmaPlot for IC50 calculations (Systat Software Inc).

[2] = tested on: A375 cells; type: cell-based, human; conditions: for IC10 concentration / Relative Growth Inhibition Compound A: A375 soft agar; for IC10 concentration: treated every other day for three weeks, single agent; for reduction of colony formation: combinatorial treatment with PLX-4032, each at IC10, FIG. 18A; for Relative Growth Inhibition Compound A: single compound at IC10; for expected (additive) reduction of colony formation: combination with PLX-4032, Bliss Independence prediction
Description: After three weeks of treatment, cells were fixed and stained in 1% paraformaldehyde in 1×PBS containing 0.005% crystal violet overnight. Cells were destained with multiple washes of 1×PBS to remove background staining. Plates were scanned and images quantified using Nikon NIS Elements software. To quantify, each image was sharpened and an ROI of equal size drawn around each well. Intensity thresholds were set to include all pixels equal to or greater than the intensity of the mean background fluorescence. Objects within the threshold of each ROI were quantified using an automated object count function and exported for analysis. Object number was quantified to denote total colony formation. […] Additivity was established when the expected viability determined by the Bliss independence model was equal to the actual viability. This model was chosen since the effects of both compounds are mutually non-exclusive and follow first order Michaelis-Menten kinetics.
To determine if the effects of each combination were more than, less than, or equal to additive, predictions for additivity were made using the Bliss Independence (Table 7), as disclosed in Yan H, Zhang B, Li S, Zhao Q. A formal model for analyzing drug combination effects and its application in TNF-alpha-induced NFkappaB pathway. BMC Syst. […] Drug combination studies and their synergy quantification using the Chou-Talalay method.

[3] = tested on: UACC-257 melanoma cell line; assay: Cell viability (IC50) screen, CellTiter Glo, UACC-257; type: cell-based; conditions: Homo sapiens
Method: as §1

[4] = tested on: UACC-502 melanoma cell line; assay: Cell viability (IC50) screen, CellTiter Glo, UACC-502; type: cell-based; conditions: Homo sapiens
Method: as §1

[5] = tested on: lysosomal protease cathepsin B in U2OS cells; assay: Immunoblot of active cathepsin B; type: cell-based; conditions: 3 μM and 30 μM for 6 hours; effects stated at 30 μM (CQ: at either dose)
Method: For Western blotting, U2OS cells were seeded in 10 cm plates in 5A McCoy's with 10% FBS at 1×10^6 cells per plate. All melanoma lines were seeded in 10 cm plates in RPMI 1640 with 10% FBS at 1×10^6 cells per plate. After 24 hours, cells were treated with CQ, QN, Example 27, or Example 7 in a dose response of 0.3 μM, 1 μM, 3 μM, 10 μM, and 30 μM for three hours. A375 were treated with PLX-4032 (Selleck Chemicals, S1267) at 10 nM, 100 nM, and 1 μM for three hours with and without CQ, QN, Example 7, and Example 27 at 3 μM and 30 μM. After treatment, cells were lysed [10 mM KPO4, 1 mM EDTA, 10 mM MgCl2, 5 mM EGTA, 50 mM bis-glycerophosphate, 0.5% NP40, 0.1% Brij35, 0.1% sodium deoxycholate, 1 mM NaVO4, 5 mM NaF, 2 mM DTT, and complete protease inhibitors (Sigma, P8340-5 mL)] and 50 μg of protein was resolved by SDS-PAGE. Proteins were transferred to PVDF membranes and probed with primary antibodies [LC3 (Sigma, L7543-200UL), anti-α-tubulin (Sigma, T6199), cathepsin B (Santa Cruz, sc-13985)] for 16 hours at 4° C. followed by a secondary antibody [HRP-linked rabbit or mouse IgG (GE Healthcare, NA934 or NA931) or Odyssey IRDye 680CW Goat anti-rabbit IgG (LI-COR, 926-32221) or IRDye 800CW Goat anti-mouse IgG (LI-COR, 926-32210)] for 1 hour at room temperature. Proteins were detected with enhanced chemiluminescence or using the Odyssey machine and quantified (FIGS. 12, 15, 16, 7 and 11).
Deacidification of lysosomes would be expected to not only prevent the maturation and turnover of the lysosomes from early to late, but also affect the functionality of lysosomal enzymes and consequently the turnover of lysosomal constituents. To determine if lysosomal activity was inhibited, lysosomal protease cathepsin B activity was measured by immunoblotting (FIG. 12C). Lysates were harvested from cells and treated with CQ, QN, Example 7, and Example 27 at both 3 μM and 30 μM for 6 hours.

[6] = tested on: U2OS cells; assay: Cell viability (IC50) screen, CellTiter Glo, U2OS; type: cell-based; conditions: for IC50: U2OS cell viability, CellTiter Glo, 48 hours
Method: as §1

[7] = tested on: UACC-2534 melanoma cell line; assay: Cell viability (IC50) screen, CellTiter Glo, UACC-2534; type: cell-based; conditions: Homo sapiens
Method: as §1

[8] = tested on: UACC-1308 melanoma cell line; assay: Cell viability (IC50) screen, CellTiter Glo, UACC-1308; type: cell-based; conditions: Homo sapiens
Method: as §1

[9] = A-375, A375 cell viability, CellTiter Glo, 48 hours, read-out: IC50
[10] = Compound A combined with AZD-8055, each at IC10
[11] = Compound A combined with PLX-4032, each at IC10
[12] = UACC-257 cell viability, CellTiter Glo, read-out: IC50
[13] = UACC-502 cell viability, CellTiter Glo, read-out: IC50
[14] = UACC-2534 cell viability, CellTiter Glo, read-out: IC50
[15] = UACC-1308 cell viability, CellTiter Glo, read-out: IC50
[16] = U2OS IC50 relative to quinacrine

| Compound | IC50 [1, 9] [µM] | IC10 concentration [2] [µM] | Actual Growth Inhibition [2, 10] | Actual Growth Inhibition [2, 11] | reduction of colony formation [2] [%] | IC50 [3, 12] [µM] | IC50 [4, 13] [µM] | active cathepsin B [5] | IC50 [7, 14] [µM] | IC50 [8, 15] [µM] | Relative Growth Inhibition Compound A [2] | Expected Bliss Additive Inhibition Value [2, 10] | Expected Bliss Additive Inhibition Value [2, 11] | expected (additive) reduction of colony formation [2] [%] | other results |
| --- | --- | --- | --- | --- | --- | --- | --- | --- | --- | --- | --- | --- | --- | --- | --- |
| CCN(CC)CCCC(C)Nc1c2ccc(Cl)cc2nc2ccc(OC)cc12 (stereo not shown) [Quinacrine, quinacrine, reference compound] | 2.3 | 0.064 | 0.54 | 0.59 | 59 | 3 | 2.2 | nearly complete loss | 2.2 | 3.9 |  |  |  |  | IC50 ([6]; Homo sapiens, U2OS, 48 h, read-out: IC50): 2.5 µM |
| COc1ccc2nc3cc(Cl)ccc3c(NCCCCN3CCN(C)CC3)c2c1 [Example 7, 6-Chloro-2-methoxy-N-(4-(4-methylpiperazin-1-yl)butyl)acridin-9-amine] | 0.4 | 0.005 | 0.57 | 0.64 | 64 | 2 | 1.8 | nearly complete loss | 2.7 | 2.1 | 0.37 | 0.44 | 0.49 | 49 | fold more cytotoxic than QN [6, 16]: 3.5; IC50 ([6]; read-out: IC50): 0.7 µM |
| CN1CCN(CCNc2c3c(nc4cc(Cl)ccc24)CCCC3)CC1 [Example 27, 6-Chloro-N-(2-(4-methylpiperazin-1-yl)ethyl)-1,2,3,4-tetrahydroacridin-9-amine] |  | 0.002 | 0.50 | 0.62 | 62 |  |  | significant decrease |  |  | 0.37 | 0.44 | 0.49 | 49 | IC50 ([1]; A-375, 48 h): 24.3 µM; IC50 ([3]; UACC-257): 25.3 µM; IC50 [4]: 42.3 µM; times less cytotoxic than QN [6, 16]: 10; IC50 [6]: 27 µM; IC50 [7]: 26.6 µM; IC50 [8]: 14.9 µM |
